What all share (type): cell-based
Experiment [1] deals with U937 cells (human monocytic cell line). As to the kind of experiment: Pam2CSK4-induced TNF-α secretion inhibition in PMA-differentiated U937 cells. To be noted: U-937, U937 cells differentiated with PMA, read-out: TNF-α production inhibition grade (IC50). Put shortly: (§1)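 U937 cells were PMA-differentiated into macrophages and treated with compound before inflammatory stimulus. TNF-α secretion was induced with Pam2CSK4 and IL-1β secretion with BzATP. IC50 (μM) values are graded A-D, with separate cut-offs per cytokine.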

Experiment [2] has the same test system. As to the kind of experiment: BzATP-induced IL-1β secretion inhibition in PMA-differentiated U937 cells. The note with it: U-937, U937 cells differentiated with PMA, read-out: IL-1β production inhibition grade (IC50). The procedure, abridged:
as §1

In experiment [3] the test system is J774A.1 (Mouse BALB/c monocyte macrophage cell line) cells. As to the kind of experiment: LPS-induced TNF-α secretion inhibition in J774A.1 cells. To be noted: J774.A1, 1 μM compound, graded compared to taurodeoxycholic acid (positive control), read-out: TNF-α production inhibition grade. How it is done: (§2) To evaluate anti-inflammatory efficacy, an inflammatory response was induced in J774A.1 (Mouse BALB/c monocyte macrophage cell line) cells derived from mouse macrophages by LPS (lipopolysaccharide) and LPS+ATP (adenosine triphosphate), and the efficacy of taurine-bile acid derivatives to inhibit the production of inflammatory cytokines (IL-1β, TNF-α) was measured. After treating J774A.1 cells with 1 μM of a taurine-bile acid derivative, the degree to which the secretion of TNF-α among cytokines was suppressed was measured in the experimental group in which an inflammatory response was induced by LPS, and the extent to which IL-1β secretion among cytokines was suppressed was measured in the experimental group in which an inflammatory response was induced with LPS+ATP. The ability of taurine-bile acid derivatives to inhibit cytokine production was graded compared to taurodeoxycholic acid, a positive control. The grading criteria are A: over 100%, B: over 50% and under 100%, C: between 20% and under 50%, and D: under 20%.

Experiment [4] has the same test system. As to the kind of experiment: LPS+ATP-induced IL-1β secretion inhibition in J774A.1 cells. To be noted: J774.A1, 1 μM compound, graded compared to taurodeoxycholic acid (positive control), read-out: IL-1β production inhibition grade. How it is done: as §2

As a reminder, the IC50 is the concentration needed to halve the response being measured. Usually inhibition stands for the share of the control response that was lost under treatment. For the compound `C[C@H](CCC(=O)NC(C)(C)CS(=O)(=O)O)[C@H]1CC[C@H]2[C@@H]3CC[C@@H]4C[C@H](O)CC[C@]4(C)[C@H]3C[C@H](O)[C@]12C` [NC10029], the IC50 in experiment [1] is at least 2000 nM; in experiment [2] it was 50 to 100 nM. For the same compound, the inhibition at 1 µM in experiment [3] is below 20%; in experiment [4], above 100%.
For `C[C@H](CCC(=O)N[C@H](Cc1ccccc1)CS(=O)(=O)O)[C@H]1CC[C@H]2[C@@H]3CC[C@@H]4C[C@H](O)CC[C@]4(C)[C@H]3C[C@H](O)[C@]12C` [NC10031], in that order: at least 2000 nM, 50 to 100 nM, below 20% and below 20%.
For `CC(C)[C@@H](CS(=O)(=O)O)NC(=O)CC[C@@H](C)[C@H]1CC[C@H]2[C@@H]3CC[C@@H]4C[C@H](O)CC[C@]4(C)[C@H]3C[C@H](O)[C@]12C` [NC10032], in that order: at least 2000 nM, 50 to 100 nM, below 20% and 50 to 100%.
Taken in the same sequence, the figures for `CC(C)[C@H](CS(=O)(=O)O)NC(=O)CC[C@@H](C)[C@H]1CC[C@H]2[C@@H]3CC[C@@H]4C[C@H](O)CC[C@]4(C)[C@H]3C[C@H](O)[C@]12C` [NC10033] were 500 to 1000 nM, 100 to 200 nM, below 20% and 50 to 100%.
For `C[C@H](CCC(=O)N[C@@H](CS(=O)(=O)O)c1ccccc1)[C@H]1CC[C@H]2[C@@H]3CC[C@@H]4C[C@H](O)CC[C@]4(C)[C@H]3C[C@H](O)[C@]12C` [NC10035], the figures for the IC50 in experiment [1] and in experiment [2] were 500 to 1000 nM and at least 200 nM, respectively. In addition, the inhibition at 1 µM is below 20% in experiment [3] and 50 to 100% in experiment [4].
For `C[C@H](CCC(=O)N1CCC[C@@H]1CS(=O)(=O)O)[C@H]1CC[C@H]2[C@@H]3CC[C@@H]4C[C@H](O)CC[C@]4(C)[C@H]3C[C@H](O)[C@]12C` [NC10036], in that order: at least 2000 nM, 100 to 200 nM, below 20% and above 100%.
Taken in the same sequence, the figures for `C[C@H](CCC(=O)N1CCC[C@H]1CS(=O)(=O)O)[C@H]1CC[C@H]2[C@@H]3CC[C@@H]4C[C@H](O)CC[C@]4(C)[C@H]3C[C@H](O)[C@]12C` [NC10037] were below 500 nM, at least 200 nM, below 20% and 50 to 100%.
For `C[C@H](CCC(=O)NC[C@H](C)S(=O)(=O)O)[C@H]1CC[C@H]2[C@@H]3CC[C@@H]4C[C@H](O)CC[C@]4(C)[C@H]3C[C@H](O)[C@]12C` [NC10038], in that order: at least 2000 nM, 50 to 100 nM, below 20% and 50 to 100%.
Turning to `C[C@H](CCC(=O)NC[C@@H](C)S(=O)(=O)O)[C@H]1CC[C@H]2[C@@H]3CC[C@@H]4C[C@H](O)CC[C@]4(C)[C@H]3C[C@H](O)[C@]12C` [NC10039], the results for the IC50 in experiment [1] and in experiment [2] were 500 to 1000 nM and 50 to 100 nM, respectively. Also, the inhibition at 1 µM was in the range of 20 to 50% in experiment [3] and 50 to 100% in experiment [4].
Taken in the same sequence, the figures for `C[C@H](CCC(=O)N[C@@H](CO)CS(=O)(=O)O)[C@H]1CC[C@H]2[C@@H]3CC[C@@H]4C[C@H](O)CC[C@]4(C)[C@H]3C[C@H](O)[C@]12C` [NC10040] were 1000 to 2000 nM, at least 200 nM, below 20% and below 20%.
In the case of `C[C@H](CCC(=O)N[C@@H]1CCCC[C@@H]1S(=O)(=O)O)[C@H]1CC[C@H]2[C@@H]3CC[C@@H]4C[C@H](O)CC[C@]4(C)[C@H]3C[C@H](O)[C@]12C` [NC10041], the IC50 in experiment [1] was 500 to 1000 nM; in experiment [2], at least 200 nM. In addition, the inhibition at 1 µM in experiment [3] and in experiment [4] was below 20% each time.
Take `C[C@H](CCC(=O)N[C@H]1CCCC[C@H]1S(=O)(=O)O)[C@H]1CC[C@H]2[C@@H]3CC[C@@H]4C[C@H](O)CC[C@]4(C)[C@H]3C[C@H](O)[C@]12C` [NC10042]: the results for the IC50 in experiment [1] and in experiment [2] were 500 to 1000 nM and at least 200 nM, respectively. Besides, the inhibition at 1 µM in experiment [3] and in experiment [4] was below 20% each time.
Take `C[C@H](CCC(=O)N[C@@H](C)CS(=O)(=O)O)[C@H]1CC[C@H]2[C@@H]3CC[C@@H]4C[C@H](O)CC[C@]4(C)[C@H]3C[C@H](O)[C@]12C` [NC10043]: the figures for the IC50 in experiment [1] and in experiment [2] were below 500 nM and 100 to 200 nM, respectively. Besides, the inhibition at 1 µM in experiment [3] was below 20%; in experiment [4], above 100%.
For `CC(C)C[C@@H](CS(=O)(=O)O)NC(=O)CC[C@@H](C)[C@H]1CC[C@H]2[C@@H]3CC[C@@H]4C[C@H](O)CC[C@]4(C)[C@H]3C[C@H](O)[C@]12C` [NC10045], in that order: below 500 nM, 50 to 100 nM, below 20% and 50 to 100%.
For `CC(C)C[C@H](CS(=O)(=O)O)NC(=O)CC[C@@H](C)[C@H]1CC[C@H]2[C@@H]3CC[C@@H]4C[C@H](O)CC[C@]4(C)[C@H]3C[C@H](O)[C@]12C` [NC10046], in that order: below 500 nM, 100 to 200 nM, below 20% and 50 to 100%.
For `C[C@H](CCC(=O)NC1(CS(=O)(=O)O)CC1)[C@H]1CC[C@H]2[C@@H]3CC[C@@H]4C[C@H](O)CC[C@]4(C)[C@H]3C[C@H](O)[C@]12C` [NC10047], in that order: 500 to 1000 nM, 100 to 200 nM, below 20% and 20 to 50%.
Consider `C[C@H](CCC(=O)N1CC[C@H](S(=O)(=O)O)C1)[C@H]1CC[C@H]2[C@@H]3CC[C@@H]4C[C@H](O)CC[C@]4(C)[C@H]3C[C@H](O)[C@]12C` [NC10048], for which the figures for the half-maximal inhibitory concentration (IC50) in experiment [1] and in experiment [2] were below 500 nM and 50 to 100 nM, respectively. For the same compound, the inhibition at 1 µM in experiment [3] is below 20%; in experiment [4], 50 to 100%.
Taken in the same sequence, the figures for `C[C@H](CCC(=O)N1CC[C@@H](S(=O)(=O)O)C1)[C@H]1CC[C@H]2[C@@H]3CC[C@@H]4C[C@H](O)CC[C@]4(C)[C@H]3C[C@H](O)[C@]12C` [NC10049] were below 500 nM, below 50 nM, below 20% and above 100%.
For `C[C@H](CCC(=O)N(CCN(C)C)CCS(=O)(=O)O)[C@H]1CC[C@H]2[C@@H]3CC[C@@H]4C[C@H](O)CC[C@]4(C)[C@H]3C[C@H](O)[C@]12C` [NC10050], in that order: below 500 nM, 50 to 100 nM, below 20% and above 100%.
For `C[C@H](CCC(=O)N(CCS(=O)(=O)O)Cc1cccnc1)[C@H]1CC[C@H]2[C@@H]3CC[C@@H]4C[C@H](O)CC[C@]4(C)[C@H]3C[C@H](O)[C@]12C` [NC10051], in that order: 1000 to 2000 nM, 50 to 100 nM, below 20% and 50 to 100%.
Turning to `C[C@H](CCC(=O)N(CCS(=O)(=O)O)c1ccccc1)[C@H]1CC[C@H]2[C@@H]3CC[C@@H]4C[C@H](O)CC[C@]4(C)[C@H]3C[C@H](O)[C@]12C` [NC10052], the figures for the 50% inhibitory concentration (IC50) in experiment [1] and in experiment [2] were 1000 to 2000 nM and 50 to 100 nM, respectively. Also, the inhibition at 1 µM in experiment [3] and in experiment [4] was 50 to 100% in each case.
Regarding `C[C@H](CCC(=O)NCCC(=O)O)[C@H]1CC[C@H]2[C@@H]3CC[C@@H]4C[C@H](O)CC[C@]4(C)[C@H]3CC[C@]12C` [NC10053], the IC50 in experiment [1] was in the range of 1000 to 2000 nM; in experiment [2], 50 to 100 nM. In addition, the inhibition at 1 µM in experiment [3] and in experiment [4] was 50 to 100% each time.
With `C[C@H](CCC(=O)NCCCO)[C@H]1CC[C@H]2[C@@H]3CC[C@@H]4C[C@H](O)CC[C@]4(C)[C@H]3CC[C@]12C` [NC10054], the IC50 lay in the range of 1000 to 2000 nM in experiment [1] and 50 to 100 nM in experiment [2]. Besides, the inhibition at 1 µM is below 20% in experiment [3] and 50 to 100% in experiment [4].
Consider `C[C@H](CCC(=O)N(C)CCS(=O)(=O)O)[C@H]1CC[C@H]2[C@@H]3CC[C@@H]4C[C@H](O)CC[C@]4(C)[C@H]3CC[C@]12C` [NC10055], for which the IC50 in experiment [1] was 1000 to 2000 nM; in experiment [2] it was below 50 nM. Moreover, the inhibition at 1 µM in experiment [3] is below 20%; in experiment [4], 50 to 100%.

Values taken from patent publication US20240391948A1, “NOVEL COMPOUND THAT INHIBITS TNF-ALPHA GENERATION AND INFLAMMASOME ACTIVITY AND PREPARATION METHOD THEREFOR” (SHAPERON INC., priority 2021, published 2024).
